Assay results published in patent US20060281700A1, “SYNERGISTIC MODULATION OF FLT3 KINASE USING AMINOPYRIMIDINES KINASE MODULATORS” (priority 2005, published 2006).

Target: T1, isolated kinase domain of the human FLT3 receptor (a.a. 571-993) (Homo sapiens, UniProt P36888)
T1 construct: isolated kinase domain of the human FLT3 receptor (a.a. 571-993)
T1 sequence (P36888 571-993): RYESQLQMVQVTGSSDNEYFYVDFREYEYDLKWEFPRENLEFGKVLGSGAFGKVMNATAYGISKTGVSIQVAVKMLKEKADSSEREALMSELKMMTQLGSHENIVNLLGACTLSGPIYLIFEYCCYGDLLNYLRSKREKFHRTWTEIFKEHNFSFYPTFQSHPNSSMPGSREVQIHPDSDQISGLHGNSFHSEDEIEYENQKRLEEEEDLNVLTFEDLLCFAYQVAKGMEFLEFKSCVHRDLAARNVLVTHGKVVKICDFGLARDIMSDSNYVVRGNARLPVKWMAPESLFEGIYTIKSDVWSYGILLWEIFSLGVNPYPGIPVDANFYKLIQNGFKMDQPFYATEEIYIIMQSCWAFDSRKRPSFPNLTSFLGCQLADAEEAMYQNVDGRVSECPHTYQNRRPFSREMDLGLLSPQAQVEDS
Experiment: FLT3 Fluorescence Polarization Kinase Assay
Assay type: biochemical
Conditions: 10 nM FLT3 571-993, 150 uM ATP; uncertainty ±10%
Method: FLT3 Fluorescence Polarization Kinase Assay
To determine the activity of the FLT3 inhibitors of Formula I′ in an in vitro kinase assay, inhibition of the isolated kinase domain of the human FLT3 receptor (a.a. 571-993) was performed using the following fluorescence polarization (FP) protocol. The FLT3 FP assay utilizes the fluorescein-labeled phosphopeptide and the anti-phosphotyrosine antibody included in the Panvera Phospho-Tyrosine Kinase Kit (Green) supplied by Invitrogen. When FLT3 phosphorylates polyGlu4Tyr, the fluorescein-labeled phosphopeptide is displaced from the anti-phosphotyrosine antibody by the phosphorylated poly Glu4Tyr, thus decreasing the FP value. The FLT3 kinase reaction is incubated at room temperature for 30 minutes under the following conditions: 10 nM FLT3 571-993, 20 ug/mL poly Glu4Tyr, 150 uM ATP, 5 mM MgCl2, 1% compound in DMSO. The kinase reaction is stopped with the addition of EDTA. The fluorescein-labeled phosphopeptide and the anti-phosphotyrosine antibody are added and incubated for 30 minutes at room temperature.
All data points are an average of triplicate samples. Inhibition and IC50 data analysis was done with GraphPad Prism using a non-linear regression fit with a multiparamater, sigmoidal dose-response (variable slope) equation.

Row | IC50 | Compound
1 | 150 nM | CO/N=C/c1c(N)ncnc1N1CCC(OC(=O)Nc2ccc(OC(C)C)cc2)CC1 [Number 1, (4-Isopropoxy-phenyl)-carbamic acid 1-[6-amino-5-(methoxyimino-methyl)-pyrimidin-4-yl]-piperidin-4-yl ester]
2 | 55 nM | CCO/N=C/c1c(N)ncnc1N1CCC(OC(=O)Nc2ccc(OC(C)C)cc2)CC1 [Number 2, (4-Isopropoxy-phenyl)-carbamic acid 1-[6-amino-5-(ethoxyimino-methyl)-pyrimidin-4-yl]-piperidin-4-yl ester]
3 | 300 nM | CC(C)Oc1ccc(NC(=O)OC2CCN(c3ncnc(N)c3/C=N/OCCCN(C)C)CC2)cc1 [Number 4, (4-Isopropoxy-phenyl)-carbamic acid 1-{6-amino-5-[(3-dimethylamino-propoxyimino)-methyl]-pyrimidin-4-yl}-piperidin-4-yl ester]
4 | 29 nM | CO/N=C/c1c(N)ncnc1N1CCC(OC(=O)Nc2ccc(C(C)C)cc2)CC1 [Number 5, (4-Isopropyl-phenyl)-carbamic acid 1-[6-amino-5-(methoxyimino-methyl)-pyrimidin-4-yl]-piperidin-4-yl ester]
5 | 16 nM | CO/N=C/c1c(N)ncnc1N1CCC(CC(=O)Nc2ccc(C(C)C)cc2)C1 (stereo not shown) [Number 6, 2-{1-[6-Amino-5-(methoxyimino-methyl)-pyrimidin-4-yl]-pyrrolidin-3-yl}-N-(4-isopropyl-phenyl)-acetamide]
6 | 81 nM | CO/N=C/c1c(N)ncnc1N1CCC(CC(=O)Nc2ccc(C(C)C)cc2)CC1 [Number 7, 2-{1-[6-Amino-5-(methoxyimino-methyl)-pyrimidin-4-yl]-piperidin-4-yl}-N-(4-isopropyl-phenyl)-acetamide]
7 | 290 nM | CO/N=C/c1c(N)ncnc1N1CCC(NC(=O)Nc2ccc(OC(C)C)cc2)C1 (stereo not shown) [Number 8, 1-{1-[6-Amino-5-(methoxyimino-methyl)-pyrimidin-4-yl]-pyrrolidin-3-yl}-3-(4-isopropoxy-phenyl)-urea]
8 | 450 nM | CO/N=C/c1c(N)ncnc1N1CCC(NC(=O)Nc2ccc(N3CCCCC3)cc2)C1 (stereo not shown) [Number 9, 1-{1-[6-Amino-5-(methoxyimino-methyl)-pyrimidin-4-yl]-pyrrolidin-3-yl}-3-(4-piperidin-1-yl-phenyl)-urea]
9 | 1100 nM | CO/N=C/c1c(N)ncnc1N1CCC(NC(=O)Nc2ccc(N3CCOCC3)cc2)C1 (stereo not shown) [Number 10, 1-{1-[6-Amino-5-(methoxyimino-methyl)-pyrimidin-4-yl]-pyrrolidin-3-yl}-3-(4-morpholin-4-yl-phenyl)-urea]
10 | 460 nM | CO/N=C/c1c(N)ncnc1N1CCC(NC(=O)Nc2ccc(OC(C)C)cc2)CC1 [Number 12, 1-{1-[6-Amino-5-(methoxyimino-methyl)-pyrimidin-4-yl]-piperidin-4-yl}-3-(4-isopropoxy-phenyl)-urea]
11 | 310 nM | CO/N=C/c1c(N)ncnc1N1CCC(NC(=O)Nc2ccc(N3CCCCC3)cc2)CC1 [Number 13, 1-{1-[6-Amino-5-(methoxyimino-methyl)-pyrimidin-4-yl]-piperidin-4-yl}-3-(4-piperidin-1-yl-phenyl)-urea]
12 | 880 nM | CO/N=C/c1c(N)ncnc1N1CCC(NC(=O)Nc2ccc(N3CCOCC3)cc2)CC1 [Number 14, 1-{1-[6-Amino-5-(methoxyimino-methyl)-pyrimidin-4-yl]-piperidin-4-yl}-3-(4-morpholin-4-yl-phenyl)-urea]
13 | > 10000 nM | CO/N=C/c1c(N)ncnc1N1CCC(NC(=O)Nc2ccc(C3CCCCC3)cc2)C1 (stereo not shown) [Number 17, 1-{1-[6-Amino-5-(methoxyimino-methyl)-pyrimidin-4-yl]-pyrrolidin-3-yl}-3-(4-cyclohexyl-phenyl)-urea]
14 | 2970 nM | CO/N=C/c1c(N)ncnc1N1CCC(NC(=O)Nc2ccc(Cl)cc2)C1 (stereo not shown) [Number 18, 1-{1-[6-Amino-5-(methoxyimino-methyl)-pyrimidin-4-yl]-pyrrolidin-3-yl}-3-(4-chloro-phenyl)-urea]
15 | 2500 nM | CO/N=C/c1c(N)ncnc1N1CCC(NC(=O)Nc2ccc(Oc3ccccc3)cc2)C1 (stereo not shown) [Number 19, 1-{1-[6-Amino-5-(methoxyimino-methyl)-pyrimidin-4-yl]-pyrrolidin-3-yl}-3-(4-phenoxy-phenyl)-urea]
16 | 4500 nM | CO/N=C/c1c(N)ncnc1N1CCC(NC(=O)Nc2ccc(N3CCCC3)cc2)C1 (stereo not shown) [Number 20, 1-{1-[6-Amino-5-(methoxyimino-methyl)-pyrimidin-4-yl]-pyrrolidin-3-yl}-3-(4-pyrrolidin-1-yl-phenyl)-urea]
17 | 4500 nM | CO/N=C/c1c(N)ncnc1N1CCC(NC(=O)Nc2ccc(OC3CCCC3)nc2)C1 (stereo not shown) [Number 21, 1-{1-[6-Amino-5-(methoxyimino-methyl)-pyrimidin-4-yl]-pyrrolidin-3-yl}-3-(6-cyclopentyloxy-pyridin-3-yl)-urea]
18 | 78 nM | CO/N=C/c1c(N)ncnc1N1CCC(NC(=O)Nc2ccc(C3CCCCC3)cc2)CC1 [Number 22, 1-{1-[6-Amino-5-(methoxyimino-methyl)-pyrimidin-4-yl]-piperidin-4-yl}-3-(4-cyclohexyl-phenyl)-urea]
19 | 65 nM | CO/N=C/c1c(N)ncnc1N1CCC(NC(=O)Nc2ccc(OC3CCCC3)nc2)CC1 [Number 23, 1-{1-[6-Amino-5-(methoxyimino-methyl)-pyrimidin-4-yl]-piperidin-4-yl}-3-(6-cyclopentyloxy-pyridin-3-yl)-urea]
20 | 34 nM | CO/N=C/c1c(N)ncnc1N1CCC(NC(=O)Nc2ccc(Cl)cc2)CC1 [Number 25, 1-{1-[6-Amino-5-(methoxyimino-methyl)-pyrimidin-4-yl]-piperidin-4-yl}-3-(4-chloro-phenyl)-urea]
21 | 20 nM | CO/N=C/c1c(N)ncnc1N1CCC(NC(=O)Nc2ccc(Oc3ccccc3)cc2)CC1 [Number 26, 1-{1-[6-Amino-5-(methoxyimino-methyl)-pyrimidin-4-yl]-piperidin-4-yl}-3-(4-phenoxy-phenyl)-urea]
22 | 2700 nM | CCNC(=O)NCCO/N=C/c1c(N)ncnc1N1CCC(NC(=O)Nc2ccc(C(C)C)cc2)C1 (stereo not shown) [Number 28, 1-[1-(6-Amino-5-{[2-(3-ethyl-ureido)-ethoxyimino]-methyl}-pyrimidin-4-yl)-pyrrolidin-3-yl]-3-(4-isopropyl-phenyl)-urea]
23 | 1200 nM | CC(C)c1ccc(NC(=O)NC2CCN(c3ncnc(N)c3/C=N/OCC(=O)N3CCOCC3)C2)cc1 (stereo not shown) [Number 29, 1-(1-{6-Amino-5-[(2-morpholin-4-yl-2-oxo-ethoxyimino)-methyl]-pyrimidin-4-yl}-pyrrolidin-3-yl)-3-(4-isopropyl-phenyl)-urea]

Row | Compound | IC50
24 | CO/N=C/c1c(N)ncnc1N1CCC(NC(=O)Nc2ccc(OC3CCC3)nc2)C1 (stereo not shown) [Number 11, 1-{1-[6-Amino-5-(methoxyimino-methyl)-pyrimidin-4-yl]-pyrrolidin-3-yl}-3-(6-cyclobutoxy-pyridin-3-yl)-urea] | 160 nM
25 | CO/N=C/c1c(N)ncnc1N1CCC(NC(=O)Nc2ccc(OC3CCC3)nc2)CC1 [Number 15, 1-{1-[6-Amino-5-(methoxyimino-methyl)-pyrimidin-4-yl]-piperidin-4-yl}-3-(6-cyclobutoxy-pyridin-3-yl)-urea] | 410 nM
